Assay results reported in patent US20060247421A1, “Liver x receptor alpha splicing mutant protein, gene thereof and utilization of the same” (priority 2003, published 2006).

Test system: liver X receptor α splicing mutant proteins (D5, 5A and 6A)
Assay: Reporter assay in a transient expression system in HEK293 cells (TATA-LXREx4-luciferase), ligand-dependent transcription activating ability
Assay type: cell-based, human
Settings: three kinds of liver X receptor α splicing mutant proteins
Procedure: FIG. 5 is a view showing the results of assessment of the function of liver X receptor α splicing mutant proteins (D5, 5A and 6A) by a reporter assay in a transient expression system in HEK293 cells. […] A non-treated section is represented by white, a 1 μg/ml 22R-hydroxycholesterol-treated section is represented by black, and a 1 μg/ml 25-hydroxycholesterol-treated section is represented by gray. In addition, in each test section, 1 μM 9-cis retinoic acid is contained. Letting a value of luciferase activity in a control section (control) in which only a solvent was added to be 100%, a value of luciferase activity in each test section is shown as a relative value. WT means a normal liver X receptor α.
A human fetal kidney-derived HEK293 cell strain (ATCC; CRL-1573) was subcultured in a Dulbecco modified Eagle medium (DMEM) containing 10% bovine fetal serum (FBS) from which low-molecular substances had been removed with charcoal dextran, and penicillin (100 unit/ml) and streptomycin ([…]) as an antibiotic, and not containing phenol red at 37° C. under the presence of 5% CO2. The subcultured HEK293 cell strain was seeded on a 10 cm cell culturing dish to about 2×10^6 cells. […]

## CC(C)CC[C@@H](O)[C@@H](C)[C@H]1CC[C@H]2[C@@H]3CC=C4C[C@@H](O)CC[C@]4(C)[C@H]3CC[C@]12C [22R-oxycholesterol]
  transcription activating ability depending on ligand, as compared with that of a normal liver X receptor α: extremely weak or not recognized level
